Values quoted from earlier work, collected in patent EP4640076A1, “ORAL PRODUCT WITH FLAVOR EMULSION” (Nicoventures Trading Limited, priority 2024, dated 2025).
Read-outs that look alike come from different tables or passages of the source.

Assays:
[1] = at 25°C; heptanal

logP (resveratrol) | logP (heptanal) | vapor pressure [1] [mm Hg] | Compound
3.1 |  |  | Oc1ccc(/C=C/c2cc(O)cc(O)c2)cc1 [Resveratrol, 3,5,4'-trihydroxy-trans-stilbene]
 | 2.44 | 3.85 | CCCCCCC=O [heptanal]
